Like-named read-outs stand apart in the source and are kept apart here.
Legend:
[1] = tested on: CD4+ T cells from LTBI donors; experiment: HLA locus restriction, antibody inhibition IFNγ ELISPOT; type: cell-based, human; conditions: antibodies 10 µg/ml against HLA-DR, DP or DQ
[2] = target: DRB1*01:01 (Homo sapiens, UniProt P01903+P01911, A100R/D57E/F55L/F60I/F76Y/I96L/L162R/M171V/P40L/Q125E/R42F/V115G/Y59C); experiment: MHC-peptide binding assay
[3] = tested on: HLA class II alleles; design: species or system human

Question: “CFP10 72–86: 15-mer peptide epitope, residues 72–86 of CFP10 (Rv3874) (ISTNIRQAGVQYSRA; UniProt P9WNK5 72-86, looked up, fragment)” was tested. Which “Restricting HLA locus” value ([1]; donor TU2) did it give?
Answer: Its value is “DP, DQ, DR”.

Question: And the “Restricting HLA locus” value ([1]; donor TU11)?
Answer: Its value is “DP, DQ, DR”.

Question: For “ESAT-6 3–17: 15-mer peptide epitope, residues 3–17 of ESAT-6 (Rv3875) (EQQWNFAGIEAAASA; UniProt P9WNK7 3-17, looked up, fragment)”, which “Restricting HLA locus” value ([1]; donor TU25) is on record?
Answer: The value was “DQ, DR”.

Question: With “CFP10 40–54: 15-mer peptide epitope, residues 40–54 of CFP10 (Rv3874) (QGQWRGAAGTAAQAA; UniProt P9WNK5 40-54, looked up, fragment)” as the substance, how does the “Binding to DRB1*01:01” value [2] read?
Answer: Its value is “high affinity”.

Question: And the “Donors that responded expressing DRB1*01:01” value [3]?
Answer: Its value is 3 of 4.

Question: And the “Restricting HLA locus” value ([1]; donor TU7)?
Answer: The value was “DP, DQ, DR”.

Question: “Rv2031c 106–120: 15-mer peptide epitope, residues 106–120 of Rv2031c (hspX) (VGADEDDIKATYDKG; UniProt P9WMK1 106-120, looked up, fragment)” was tested. Which “Restricting HLA locus” value ([1]; donor TU2) did it give?
Answer: Its value is “DP, DR”.

Question: What about the “Restricting HLA locus” value ([1]; donor TU8) of the same substance?
Answer: The value was “DP, DQ, DR”.

Question: What about the “Restricting HLA locus” value ([1]; donor TU29) of the same substance?
Answer: The value was “DP, DR”.

Question: “ESAT-6 73–87: 15-mer peptide epitope, residues 73–87 of ESAT-6 (Rv3875) (ARTISEAGQAMASTE; UniProt P9WNK7 73-87, looked up, fragment)” was tested. Which “No. donors expressing allele resp.” value [3] did it give?
Answer: Its value is 3 of 5.

Question: What about the “No. donors expressing allele resp.” value ([3]; listed as ESAT-6_72–87) of the same substance?
Answer: Its value is 3 out of 5.

Question: What does the source list for “CFP10 52–66: 15-mer peptide epitope, residues 52–66 of CFP10 (Rv3874)”?
Answer: No. donors expressing allele resp. [3]: 4 of 5; No. donors expressing allele resp. ([3]; listed as CFP10_52–66): 4 out of 5
